This is an account of results in article PMC4488747, “Inhibition of P-glycoprotein Gene Expression and Function Enhances Triptolide-induced Hepatotoxicity in Mice” (Scientific Reports, 2015).

The target of series [1] is T1, P-gp (Mus musculus, UniProt P21447).
T1 construct: from tissue; host or cells: whole living mice (in vivo, intravenous digoxin 1 mg/kg after NC-siRNA or mdr1a-1 siRNA)
The series can be described thus: P-gp function in knockdown mice assessed by digoxin plasma pharmacokinetics. In kind it is in vivo. Conditions: iv, 1 mg/kg, digoxin 1 mg/kg injection. On the procedure:
For validation of silence efficiency in vivo, mdr1a-1 siRNA was injected via the tail vein of mice after diluted to 5, 10 and 15 nmol with saline in 200 μl. After 48 h, the mice were euthanized and the liver was collected for measurement of the P-gp protein expression using western blot. The P-gp function in gene knockdown mice was assessed using digoxin, a known P-gp substrate. NC-siRNA or mdr1a-1 siRNA was intravenously injected 2 days prior to the injection of digoxin (1mg/kg). Blood samples were collected at 5, 15, 30, min and 1, 2, 4, 6, 8, 12 hours post digoxin dose (n = 5/time-point for each group). The digoxin concentrations in samples were quantitatively analyzed by a published LC-MS/MS method.
Toxicokinetic parameters, including area under the plasma concentration-time curve (AUC), volume of distribution (Vd), clearance (CL), mean residence time (MRT) and terminal elimination half-life (t1/2), were calculated by non-compartmental analysis using WinNonlin 5.2 software (Pharsight Corporation, CA, USA). All the data were expressed as mean ± SD. Differences between groups were compared by Student’s t-test for analysis of unpaired data or one-way ANOVA. Statistical significance was accepted at P < 0.05.

The subject of series [2] is BALB/C mice. Put plainly: Liver histopathology (HE staining) in mice. In kind it is in vivo. The note with it: TP 1 mg/kg iv, 24 h, TP = NC-siRNA group, tariquidar and mdr1a-1 siRNA = given before TP. On the procedure:
For TP plasma kinetic study and toxicological evaluation, mice were divided into four groups (n = 5 each) to collect blood and tissue samples: (1) normal + saline group; (2) 1.0 mg/kg TP + 15 nmol NC-siRNA group; (3) 1.0 mg/kg TP + 15 nmol mdr1a-siRNA group; (4) 1.0 mg/kg TP + 10 mg/kg tariquidar group. In order to avoid the complication caused by drug absorption or possible intestinal first-pass effect, TP and the inhibitor were intravenously administrated to mice. The siRNA group was intravenously injected with NC-siRNA or mdr1a-siRNA 2 days before TP dose. For TP + tariquidar group, the mice were received an intravenous tariquidar dose 20 min prior to the TP injection. Blood samples were collected at 2, 5, 10, 15, 30, 60 and 120 min after TP dosing. To assess the liver exposure of TP, liver tissue samples were collected from another set of mice at 5, 30, 60 and 120 min after dosing. […] The concentrations of TP in plasma and liver tissue were measured by a validated LC-MS/MS method. […]
At 24 h of TP treatment, blood and liver tissue samples were collected from the mice in plasma kinetic study. Serum ALT and AST levels were determined with a CL8000 automated biochemical analyzer (Shimadzu, Japan) after serum was separated by centrifugation at 900 g for 10 min. […] The total protein concentration was quantified by the BCA assay. Bcl-2 and Bax proteins were measured by western blot.

For series [3], the system named is BALB/C mice. Put plainly: Serum ALT and AST (TP-induced hepatotoxicity) in mice. In kind it is in vivo. The note with it: TP 1 mg/kg iv with P-gp modulator, 24 h after TP. The procedure: For TP plasma kinetic study and toxicological evaluation, mice were divided into four groups (n = 5 each) to collect blood and tissue samples: (1) normal + saline group; (2) 1.0 mg/kg TP + 15 nmol NC-siRNA group; (3) 1.0 mg/kg TP + 15 nmol mdr1a-siRNA group; (4) 1.0 mg/kg TP + 10 mg/kg tariquidar group. In order to avoid the complication caused by drug absorption or possible intestinal first-pass effect, TP and the inhibitor were intravenously administrated to mice. The siRNA group was intravenously injected with NC-siRNA or mdr1a-siRNA 2 days before TP dose. For TP + tariquidar group, the mice were received an intravenous tariquidar dose 20 min prior to the TP injection. Blood samples were collected at 2, 5, 10, 15, 30, 60 and 120 min after TP dosing. To assess the liver exposure of TP, liver tissue samples were collected from another set of mice at 5, 30, 60 and 120 min after dosing. Three TP groups were design for this experiment, including TP + NC-siRNA group, TP + mdr1a-siRNA group and TP + tariquidar group. The liver tissue samples were weighed and then homogenized in 10 volume (w:v) of ice-cold saline. The concentrations of TP in plasma and liver tissue were measured by a validated LC-MS/MS method. Prior to the above animal study, a preliminary experiment was performed to assess the possible differences in liver P-gp protein expression (Figure S1) and TP plasma kinetics between NC-siRNA treated mice and normal mice (with saline) (Figure S2 and supplemental Table 1). […] Therefore, NC-siRNA group was used as the control in the following animal study.
(§1) At 24 h of TP treatment, blood and liver tissue samples were collected from the mice in plasma kinetic study. Serum ALT and AST levels were determined with a CL8000 automated biochemical analyzer (Shimadzu, Japan) after serum was separated by centrifugation at 900 g for 10 min. Liver tissue samples were divided into two parts, the first half was kept at −80 °C until MDA and SOD measurements using MDA and SOD assay kits (Nanjing Jiancheng Bioengineering Institute, Nanjing, China) according to the manufacturer’s instructions. The other half was fixed with 4% paraformaldehyde solution and then dehydrated, embedded in paraffin and sectioned at a thickness of 5 μm. Four paraffin sections from each mouse were dewaxed, rehydrated and stained with hematoxylin-eosin (HE) for overall morphological evaluation. The total protein concentration was quantified by the BCA assay. Bcl-2 and Bax proteins were measured by western blot.

In series [4] the test system is Bcl-2/Bax. The series can be described thus: Bcl-2 and Bax expression in mouse liver (western blot). The note with it: mice, TP 1 mg/kg iv, 24 h; tariquidar and mdr1a-siRNA = given before TP. In kind it is in vivo. The procedure:
For protein extraction, the cells or mice liver tissues were homogenized in RIPA buffer and then centrifuged at 14,000 g at 4 °C for 30 min. The supernatant was collected and the protein concentration was measured using BCA assay. The sample (50 μg protein/sample) was then loaded on 12% polyacrylamide gels and transferred to polyvinylidene difluoride membranes (Millipore, USA). After blocked by 3% bovine serum albumin, the membranes were incubated with primary antibodies and HRP-conjugated secondary antibody, and then detected using the enhanced chemiluminescence plus detection system (Molecular Device, Lmax, USA). The density of each band was quantified by using image analysis software (Science Lab 2005 Image Guage; Tokyo, Japan).
as §1, with “The other half was fixed with 4% paraformaldehyde solution and then dehydrated, embedded in paraffin and sectioned at a thickness of 5 μm. Four paraffin sections from each mouse were dewaxed, rehydrated and stained with hematoxylin-eosin (HE) for overall morphological evaluation.” left out

A short description of series [5]: Preliminary experiment: effect of NC-siRNA on pharmacokinetics of TP in mice. Conditions: TP 1.0 mg/kg. The class given is in vivo. On the procedure:
Effect of NC-siRNA on pharmacokinetic of TP
Mice were divided into two groups to collect blood samples (n=5 each): (1) 1.0 mg/kg TP + saline group; (2) 1.0 mg/kg TP + 15 nmol NC-siRNA group. The siRNA group was intravenously injected with NC-siRNA 2 days before TP dose. Blood samples were collected at 2, 5, 10, 15, 30, 60 and 120 min after TP dosing. The concentrations of TP in plasma and liver were measured by a validated LC-MS/MS method.

Series [6] relates to mdr1a mRNA. The series can be described thus: RNAi knockdown of mdr1a mRNA in CT26.WT cells (real-time PCR). The class given is cell-based, mouse. The note with it: siRNA 80 pM with Lipofectamin 2000, 48 h after transfection. On the procedure:
CT26.WT cells, a mouse colon carcinoma cell line, were obtained from ATCC and maintained in RPMI-1640 supplemented with 10% fetal bovine serum. Cells were seeded to 6-well plates at a density of 5 × 10^5 cells/well and cultured for 24 h. Transfection was performed in Opti-MEM (Invitrogen, Carlsbad, CA, USA) with synthetic siRNA (80 pM) by using Lipofectamin 2000 (Invitrogen, Carlsbad, CA, USA) for 6 h and the medium was replaced with fresh RPMI-1640. This condition was optimized in our preliminary experiments based on the transfection efficiency and the cellular viability. Following incubation for 48 h, the cells were washed three times with phosphate buffered saline buffer (PBS) and total RNA and protein were collected.
Total RNA from CT26. WT cells was extracted with Trizol (Invitrogen, Carlsbad, CA, USA) according to the manufacturer’s instructions. RNA samples (1 μg) were reverse transcribed by adding oligo(dT)18 (MBI Fermentas, USA), dNTP, RNase inhibitor, and M-MLV reverse transcriptase (Takara, Japan), holding at room temperature for 10 min and incubating at 42 °C for 60 min. The samples were heated at 72 °C to inactivate enzymes for 10 min and stored at −20 °C. Real-time PCR was performed using sense and antisense primers. […] The relative amount of target mRNA was determined using the comparative threshold (Ct) method by normalizing target mRNA Ct values to those for β-actin (ΔCt). […]
(In general: In qPCR the cycle at which signal appears reflects the starting amount.)

d = 2'-deoxy (DNA)

T1 sequence (P21447 whole entry): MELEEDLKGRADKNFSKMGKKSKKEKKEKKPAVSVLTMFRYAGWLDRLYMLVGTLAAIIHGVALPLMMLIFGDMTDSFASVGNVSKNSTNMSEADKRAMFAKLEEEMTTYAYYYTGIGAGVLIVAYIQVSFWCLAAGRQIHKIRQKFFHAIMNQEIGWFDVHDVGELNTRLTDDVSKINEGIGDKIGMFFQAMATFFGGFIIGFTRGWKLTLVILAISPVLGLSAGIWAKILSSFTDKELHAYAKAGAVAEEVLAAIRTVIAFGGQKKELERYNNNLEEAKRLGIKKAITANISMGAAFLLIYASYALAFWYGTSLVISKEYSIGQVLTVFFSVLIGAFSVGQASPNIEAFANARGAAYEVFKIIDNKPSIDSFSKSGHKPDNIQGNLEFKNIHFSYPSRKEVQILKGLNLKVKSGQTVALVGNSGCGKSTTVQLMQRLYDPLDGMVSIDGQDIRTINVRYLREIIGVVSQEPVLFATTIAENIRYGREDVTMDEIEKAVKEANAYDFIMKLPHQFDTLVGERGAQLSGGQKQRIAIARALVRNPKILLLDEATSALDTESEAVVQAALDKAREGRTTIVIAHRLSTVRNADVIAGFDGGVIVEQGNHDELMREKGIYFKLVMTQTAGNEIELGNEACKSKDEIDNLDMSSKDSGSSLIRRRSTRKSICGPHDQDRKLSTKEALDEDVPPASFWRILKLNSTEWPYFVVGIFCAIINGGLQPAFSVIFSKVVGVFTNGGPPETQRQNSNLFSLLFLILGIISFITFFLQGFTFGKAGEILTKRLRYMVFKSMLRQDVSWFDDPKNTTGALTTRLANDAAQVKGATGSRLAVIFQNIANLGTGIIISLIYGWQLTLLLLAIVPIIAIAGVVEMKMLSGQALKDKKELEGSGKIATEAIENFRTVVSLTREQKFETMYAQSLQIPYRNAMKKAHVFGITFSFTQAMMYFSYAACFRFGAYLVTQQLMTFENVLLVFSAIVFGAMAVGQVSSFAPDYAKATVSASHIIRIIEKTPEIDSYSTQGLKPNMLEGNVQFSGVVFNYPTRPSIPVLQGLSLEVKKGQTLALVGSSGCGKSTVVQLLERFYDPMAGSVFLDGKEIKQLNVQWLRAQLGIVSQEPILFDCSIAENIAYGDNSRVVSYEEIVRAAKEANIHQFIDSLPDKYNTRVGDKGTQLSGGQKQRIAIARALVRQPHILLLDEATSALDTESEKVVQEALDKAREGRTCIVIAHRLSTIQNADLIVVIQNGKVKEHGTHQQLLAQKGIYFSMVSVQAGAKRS

For `C[C@H]1O[C@@H](O[C@H]2[C@@H](O)C[C@H](O[C@H]3[C@@H](O)C[C@H](O[C@H]4CC[C@@]5(C)[C@H](CC[C@@H]6[C@@H]5C[C@@H](O)[C@]5(C)[C@@H](C7=CC(=O)OC7)CC[C@]65O)C4)O[C@@H]3C)O[C@@H]2C)C[C@H](O)[C@@H]1O` [Digoxin, digoxin], in series [1] (NC-siRNA iv 2 days prior), the AUC(0-t) came to 3360 ± 739 ng·h/mL, the concentration peaked (Cmax) at 1740 ± 574 ng/mL, the MRT was 3.7 ± 0.3 h and the Vd came to 2 ± 0.5 L/kg. In series [1] (NC-siRNA iv 2 days prior), the clearance was 4.21 mL/min/kg and the half-life was 5.7 ± 1.3 h. In addition, in series [1] (mdr1a-1 siRNA iv 2 days prior), the AUC(0-t) was 8770 ± 1450 ng·h/mL, the Cmax was determined as 2260 ± 267 ng/mL, the MRT was determined as 3.8 ± 0.4 h and the Vd stood at 0.6 ± 0.08 L/kg. In series [1] (mdr1a-1 siRNA iv 2 days prior), this compound gave a clearance of 1.66 mL/min/kg and a half-life of 4 ± 1.4 h.

As to `COc1cc2c(cc1OC)CN(CCc1ccc(NC(=O)c3cc(OC)c(OC)cc3NC(=O)c3cnc4ccccc4c3)cc1)CC2` [tariquidar, Tariquidar, reference compound], the “Histopathological changes in liver (HE)” value in series [2] is listed as “more severe”. Further, in series [3], the “Serum ALT level, folds of the TP+NC-siRNA group” value is reported as 1.2 folds and the “Serum AST level, folds of the TP+NC-siRNA group” value is 1.9 folds. Further, the “Bcl-2/Bax ratio in liver” value in series [4] is “markedly reduced the ratio”.

Regarding “NC-siRNA: negative control siRNA, sense 5′-UUCUCCGAACGUGUCACGUTT-3′ (antisense ACGUGACACGUUCGGAGAATT; sugars by position and backbone not given here; 3' and 5' ends modified with methylation and cholesterol) [reference compound]”, the “Differences in TP plasma concentrations and kinetic parameters, NC-siRNA treated vs normal (saline) mice” value in series [5] is reported as “No significant differences”.

Take “mdr1a-2: murine mdr1a siRNA, sense 5′-r(AGA AGGAAC UAG AAG GUU CUG) d(TT)-3′ (sense AGAAGGAACUAGAAGGUUCUG; antisense CAGAACCUUCUAGUUCCUUCU; RNA, 3' dTdT, backbone and methylation of C not given here; 3' and 5' ends modified with methylation and cholesterol)”: the “Silencing efficiency on mdr1a mRNA” value in series [6] came to 51%.

Take “mdr1a-3: murine mdr1a siRNA, sense 5′-GGCUGGACAAGCUGUGCAUGG-3′ (antisense AUGCACAGCUUGUCCAGCCAA; sugars by position and backbone not given here; 3' and 5' ends modified with methylation and cholesterol)”: the “Silencing efficiency on mdr1a mRNA” value in series [6] worked out at 46%.

The AUC(0-t) is the area under the concentration-time curve up to a stated or last time point. Read a high AUC(0-t) as more exposure. For orientation: Cmax means the maximum level reached in the sampled fluid or tissue. In general, MRT refers to a mean duration of stay, worked out from the concentration-time curve. By Vd is commonly meant a proportionality between amount in the body and measured concentration, not a real space. Broadly, the clearance is the volume of plasma or blood freed of the substance per unit of time. A high value points to efficient removal. By half-life is commonly meant the time needed for the level to fall by half in the phase considered. A higher half-life goes with slow decline.
